According to patent US20040002477A1, “Erectile dysfunction remedies containing prostaglandin derivatives as the active ingredient” (priority 2000, published 2004):

What was measured:
corpus cavernosum = experiment: Corpus cavernosum relaxation activity in cats (norepinephrine-contracted isolated tissue, Magnus tube); type: cell-based; settings: cat corpus cavernosum; for Corpus cavernosum relaxation rate: 10 μM norepinephrine contraction = 100%, Means ± SE
Method: Under anesthesia with urethane, penis of five cats (hybrid, weight about 3.5 kg) was removed. In the krebs solution, a corpus cavernosum was isorated, quartered and suspended with the tention of 200 mg in the Magnus tube. 10 μM norepinephrine was added and the tissue was constricted. Then the stable contraction was checked. After the addition of norepinephrine, (5Z, 9β, 11α, 13E)-17,17-propano-11,16-dihydroxy-9-chloro-20-norprosta-5,13-dienic acid·lysine salt (compound A) and (5Z, 9β, 11α, 13E)-17,17-propano-11,16-dihydroxy-9-chloroprosta-5,13,19-trienic acid (compound B), which are the compounds of the formula (I), were added respectively and the changes of the contraction were measured. As controls, PGE1 and 19-hydroxy-PGE2 were used. Each compounds were disolved in DMSO and used. The contraction induced by 10 μM norepinephrine was considered as 100% and the percentages of the relaxation rate were calculated.

[1] = rat, in vivo, iv
Method: It has been confirmed that the compounds used in the present invention of the formula (I) have sufficiently low toxicity and are sufficiently safe for use as pharmaceutical preparations. For example, the maximal tolerated dose of the compound A (lysine salts) in the compound of the formula (I) was 30 mg/kg weight or more for rat intravenous administration.

human corpus cavernosum = experiment: Corpus cavernosum relaxation activity in human (noradrenalin-contracted isolated tissue, Magnus tube); type: cell-based; settings: for Corpus cavernosum relaxation rate: 10 μM noradrenalin contraction = 100%, added cumulatively, Means ± SE
Method: The samples of the human corpus cavernosum taken at the time of operative treatment in agreement of the patient were suspended with the tention of 500 mg in the Magnus tube fulled by glucose-added Krebs buffer. The 10^−5M (10 μM) noradrenalin-induced contraction reaction, acetylcholine-induced relaxation reaction and electrostimulation(EFS)-induced contraction reaction were checked and the samples responded normaly were used in the experiment. It was reconstricted by 10 μM noradrenalin, the compound A used in the present invention of the formula (I) (n=4), the compound B used in the present invention of the formula (I) (n=5) or PGE1 (n=5), which were disolved by DMSO, were added cumulatively and the relaxation reacton was recorded on the chart. The contraction induced by 10 μM noradrenaline was concidered as 100% and the percentage of the relaxation rate was calculated.

19-hydroxy-PGE2 [reference compound]
Corpus cavernosum relaxation rate (corpus cavernosum; dose 0.3 μM): 20.0 ± 4.2%
Corpus cavernosum relaxation rate (corpus cavernosum; dose 1.0 μM): 27.2 ± 4.7%

CCC1(C(O)C/C=C/C2C(O)CC(Cl)C2C/C=C\CCCC(=O)O)CCC1.NCCCC[C@H](N)C(=O)O (stereo not drawn) [Compound A, (5Z, 9β, 11α, 13E)-17,17-propano-11,16-dihydroxy-9-chloro-20-norprosta-5,13-dienic acid·lysine salt]
Maximal tolerated dose [1]: ≥ 30 mg/kg weight
Intensity of relaxation compared with PGE1 (corpus cavernosum): at the same level as PGE1
Relaxation of corpus cavernosum, dose dependence (corpus cavernosum): dose-dependent relaxasions
Corpus cavernosum relaxation rate (corpus cavernosum; dose 0.1 μM): 26.8 ± 4.2%
Corpus cavernosum relaxation rate (corpus cavernosum; dose 1.0 μM): 35.2 ± 2.8%
Potency relative to PGE1 (human corpus cavernosum): 1.6 times
Corpus cavernosum relaxation rate (human corpus cavernosum; dose 1.0 μM): 29.9 ± 13.7%
Corpus cavernosum relaxation rate (human corpus cavernosum; dose 10 μM): 44.5 ± 12.6%

C=CCC1(C(O)C/C=C/[C@@H]2[C@@H](C/C=C\CCCC(=O)O)[C@H](Cl)C[C@H]2O)CCC1 (stereo partly drawn) [Compound B, (5Z, 9β, 11α, 13E)-17,17-propano-11,16-dihydroxy-9-chloroprosta-5,13,19-trienic acid]
Intensity of relaxation compared with PGE1 (corpus cavernosum): at the same level as PGE1
Relaxation of corpus cavernosum, dose dependence (corpus cavernosum): dose-dependent relaxasions
Corpus cavernosum relaxation rate (corpus cavernosum; dose 0.1 μM): 18.1 ± 4.8%
Corpus cavernosum relaxation rate (corpus cavernosum; dose 1.0 μM): 36.8 ± 4.2%
Potency relative to PGE1 (human corpus cavernosum): 1.6 times
Corpus cavernosum relaxation rate (human corpus cavernosum; dose 1.0 μM): 25.0 ± 4.4%
Corpus cavernosum relaxation rate (human corpus cavernosum; dose 10 μM): 45.3 ± 4.5%

CCCCC[C@H](O)/C=C/[C@H]1[C@H](O)CC(=O)[C@@H]1CCCCCCC(=O)O [PGE1, prostaglandin E1, reference compound]
Corpus cavernosum relaxation rate (corpus cavernosum; dose 0.1 μM): 21.3 ± 2.3%
Corpus cavernosum relaxation rate (corpus cavernosum; dose 1.0 μM): 35.5 ± 5.0%
Corpus cavernosum relaxation rate (human corpus cavernosum; dose 1.0 μM): 16.8 ± 7.2%
Corpus cavernosum relaxation rate (human corpus cavernosum; dose 10 μM): 27.9 ± 8.8%
